# Earlier results as cited in patent publication US5665379A, “Lipid particle forming matrix, preparation and use thereof” (priority 1990, dated 1997).
compound,measurement,value
CCCCCCCCCCCCCCCC(=O)OC(CC(=O)[O-])C[N+](C)(C)C (stereo not shown) [palmitoylcarnitine],Absorption enhancement in the gut (in words),acts as an absorption enhancer
